# Results published in patent US20080200442A1, “Compositions and Methods for Treating, Reducing, Ameliorating, or Preventing Infections of the Ear or Upper Respiratory Tract” (priority 2007, published 2008).
# Tested on: Ofloxacin-resistant Enterobacteriaceae
# Test: organism not typed
# Type: cell-based
row,Compound,MIC90 [µg/mL]
1,CC1COc2c(N3CCN(C)CC3)c(F)cc3c(=O)c(C(=O)O)cn1c23 (stereo not drawn) [Ofloxacin],64
2,NC1CCCCN(c2c(F)cc3c(=O)c(C(=O)O)cn(C4CC4)c3c2Cl)C1 (stereo not drawn) [Compound Having Formula III],16
3,CCn1cc(C(=O)O)c(=O)c2cc(F)c(N3CCNCC3)cc21 [Norfloxacin],128
